Key:
[1] = test system: HepG2 (hepatocellular liver carcinoma); assay: CellTiter-Glo cytotoxicity assay, HepG2; format: cell-based; conditions: Homo sapiens, top concentration 10 μM
Protocol: (§1) All the titled nucleosides 14a–g were tested for their in vitro cytotoxic activity. The following cancer cell lines were used for the study: A549 (lung cancer), CCRF-CEM (acute T-lymphoblastic leukemia), HCT116 and HCT116p53^– (colon carcinoma, parental and p53 deficient), K562 (chronic myelogenous leukemia), and U2OS (bone osteosarcoma) using a colorimetric MTS assay.[25] Additionally, HeLa (cervical cancer), HepG2 (hepatocellular liver carcinoma), and HL60 (acute promyelocytic leukemia) cell lines were tested using the luminescent CellTiter-Glo assay. For comparison, nonmalignant fibroblast cell lines (BJ and MRC-5) were included in the MTS assay, whereas noncancerous human dermal fibroblasts (NHDF) were assessed with the CellTiter-Glo assay.[26] Initial screenings were done at 50 μM concentration for the MTS assay and 10 μM for the CellTiter-Glo assay.
(§2) Unless otherwise stated, all reactions were carried out under an argon atmosphere. An oil bath was used for reactions requiring heating. Thin-layer chromatography (TLC) was performed on Merck silica gel 60 F-254 aluminum sheets. Visualization was obtained by UV light (λmax = 254 or 366 nm). High-performance flash chromatography (HPFC) was conducted with a Combi Flash Rf instrument from Teledyne Isco Inc. using SiO2 (particle size 0.040–0.063 mm, 230–400 mesh) from Fluorochem in refillable flash columns or HP C18 Redi Sep Rfgold flash columns with the solvent gradient indicated in the corresponding procedures. Preparative high-pressure liquid chromatography (prep. HPLC) was performed on a Waters 2535 Quaternary Gradient System with a fraction collector. Melting points (m.p.) were measured by Bohunka Šperlichová at Charles University Prague on a Büchi Melting Point B-545 apparatus using open glass capillaries and are uncorrected. Optical rotation of final nucleosides was measured by the analytical laboratory at IOCB Prague using an AUTOPOL IV automatic polarimeter from Rudolph Research Analytical at 20 °C and 589 nm. The sample concentration c is given in g mL^–1. ^1H and ^13C{^1H} NMR spectra were measured on a Bruker Avance III 500 MHz spectrometer at 25 °C in CDCl3 referenced to the residual solvent signal (δH = 7.26 ppm, δC = 77.16 ppm), in deuterated dimethyl sulfoxide (DMSO-d6) referenced to the residual solvent signal (δH = 2.50 ppm, δC = 39.52 ppm], or in D2O with tBuOH-d10 as the external standard [δH = 1.25 ppm, δC = 31.6 ppm]. ^31P NMR NMR spectra were referenced externally to the signal of H3PO4. Coupling constants (J) are given in Hz, and the multiplets are described as s (singlet), d (doublet), t (triplet), q (quartet), m (multiplet), and b (broad). ^13C{^1H} NMR experiments were broadband proton-decoupled and were performed using APT pulse sequence. DFQ-COSY, HSQC, and HMBC experiments were used to assign the ^1H and ^13C NMR signals where required. ROESY experiments were used to confirm the relative stereochemistry of nucleosides 11 and 12. To simplify the assignment, the benzoyl group attached to the 2′-hydroxy group of the ribofuranose ring was given the letter A, the one attached to the 3′-hydroxy group is considered B, and the benzoyl group at 5′-OH is called C (Figure 3). All spectra can be found in Supporting Information S6. In the ROESY spectra for nucleosides 11, 12-β, and 12-α, the important relations for the determination of the stereochemistry are highlighted. Infrared spectra (IR) were recorded on a Bruker ALPHA FT-IR spectrometer with a single-reflection Platinum ATR module. The compounds were measured in their initial state of appearance at 20 °C, and their absorption bands were reported in wavenumbers (ṽ) in the range between 4000 and 400 cm^–1. Intensities are described as strong (s), medium (m), and weak (w). UV/vis spectra were measured on a Varian Cary 100 Bio UV–visible spectrophotometer in the range 250–800 nm using transparent 1.5 mL quartz cuvettes. Fluorescence spectra were recorded on a Fluoromax 4 spectrofluorimeter from HORIBA Scientific. […]

[2] = test system: noncancerous human dermal fibroblasts (NHDF); assay: CellTiter-Glo cytotoxicity assay, NHDF; format: cell-based; conditions: top concentration 10 μM
Protocol: as §1, §2

HeLa (cervical cancer) = assay: CellTiter-Glo cytotoxicity assay, HeLa; format: cell-based; conditions: Homo sapiens, top concentration 10 μM
Protocol: as §1, §2

BJ = assay: MTS cytotoxicity assay, BJ fibroblasts; format: cell-based; conditions: Homo sapiens; nonmalignant fibroblasts BJ; top concentration 50 μM
Protocol: as §1, §2

U2OS (bone osteosarcoma) = assay: MTS cytotoxicity assay, U2OS; format: cell-based; conditions: Homo sapiens
Protocol: as §1, §2

[3] = test system: CCRF-CEM (acute T-lymphoblastic leukemia); assay: MTS cytotoxicity assay, CCRF-CEM; format: cell-based; conditions: for IC50: Homo sapiens
Protocol: as §1, §2

[4] = test system: HCT116p53– (colon carcinoma, p53 deficient); assay: MTS cytotoxicity assay, HCT116p53–; format: cell-based
Protocol: as §1, §2

MRC-5 = assay: MTS cytotoxicity assay, MRC-5 fibroblasts; format: cell-based; conditions: Homo sapiens, MRC5; nonmalignant fibroblasts MRC-5; top concentration 50 μM
Protocol: as §1, §2

[5] = test system: K562 (chronic myelogenous leukemia); assay: MTS cytotoxicity assay, K562; format: cell-based; conditions: Homo sapiens
Protocol: as §1, §2

[6] = test system: HL60 (acute promyelocytic leukemia); assay: CellTiter-Glo cytotoxicity assay, HL60; format: cell-based; conditions: Homo sapiens, HL-60, top concentration 10 μM
Protocol: as §1, §2

[7] = test system: HCT116 (colon carcinoma, parental); assay: MTS cytotoxicity assay, HCT116; format: cell-based; conditions: Homo sapiens, HCT-116
Protocol: as §1, §2

A549 (lung cancer) = assay: MTS cytotoxicity assay, A549; format: cell-based; conditions: Homo sapiens
Protocol: as §1, §2

[8] = test system: cancer cell lines and nonmalignant fibroblast cell lines; assay: In vitro cytotoxic activity across the whole cell line panel (MTS and CellTiter-Glo); format: cell-based; conditions: for cytotoxicity against nonmalignant cell lines BJ, MRC-5, and NHDF (in words): MRC-5, NHDF; for cytotoxic activity across tested cell lines (in words): whole panel of tested cell lines
Protocol: as §1, §2

SMILES | IC50 [1] [µM] | IC50 [2] [µM] | IC50 (HeLa (cervical cancer)) [µM] | IC50 (BJ) [µM] | IC50 (U2OS (bone osteosarcoma)) [µM] | activity against the CCRF-CEM leukemia line (in words) [3] | IC50 [3] [µM] | IC50 [4] [µM] | IC50 (MRC-5) [µM] | IC50 [5] [µM] | IC50 [6] [µM] | IC50 [7] [µM] | IC50 (A549 (lung cancer)) [µM] | melting point | cytotoxicity against nonmalignant cell lines BJ, MRC-5, and NHDF (in words) [8] | cytotoxic activity across tested cell lines (in words) [8]
OC[C@H]1O[C@@H](n2c3ccc4ncccc4c3c3c(-c4ccco4)ncnc32)[C@H](O)[C@@H]1O [14a, 11-(Furan-2-yl)-7-(β-D-ribofuranosyl)pyrimido[5′,4′:4,5]pyrrolo[3,2-f]quinoline] | > 10 | > 10 | > 10 | > 50 | > 50 | weak activity | 38.5 | > 50 | > 50 | > 50 | > 10 | > 50 | > 50 |  |  | 
OC[C@H]1O[C@@H](n2c3ccc4ncccc4c3c3c(-c4cc5ccccc5o4)ncnc32)[C@H](O)[C@@H]1O [14b, 11-(Benzofuran-2-yl)-7-(β-D-ribofuranosyl)pyrimido[5′,4′:4,5]pyrrolo[3,2-f]quinoline] | 2.8 | > 10 | > 10 | > 50 | > 50 | weak activity | 18.6 | 43.2 | > 50 | > 50 | > 10 | 36 | > 50 | 124 °C |  | 
Cc1ncnc2c1c1c3cccnc3ccc1n2[C@@H]1O[C@H](CO)[C@@H](O)[C@H]1O [14c, 11-Methyl-7-(β-D-ribofuranosyl)pyrimido[5′,4′:4,5]pyrrolo[3,2-f]quinoline] | > 10 | > 10 | > 10 | > 50 | 13.1 |  | 6.5 | 17 | > 50 | 11.9 | 6.7 | 17 | 26.4 | 256 °C | no cytotoxicity | moderate cytotoxic activity
CN(C)c1ncnc2c1c1c3cccnc3ccc1n2[C@@H]1O[C@H](CO)[C@@H](O)[C@H]1O [14d, 11-(N,N-Dimethylamino)-7-(β-D-ribofuranosyl)pyrimido[5′,4′:4,5]pyrrolo[3,2-f]quinoline] | > 10 | > 10 | > 10 | > 50 | > 50 |  | > 50 | > 50 | > 50 | > 50 | > 10 | > 50 | > 50 | 240 °C |  | did not show any cytotoxicity whatsoever
Nc1ncnc2c1c1c3cccnc3ccc1n2[C@@H]1O[C@H](CO)[C@@H](O)[C@H]1O [14e, 11-Amino-7-(β-D-ribofuranosyl)pyrimido[5′,4′:4,5]pyrrolo[3,2-f]quinoline] | 8.6 | > 10 | > 10 | > 50 | 17.1 |  | 8.5 | 17.3 | > 50 | 10 | 5.2 | 18.9 | > 50 | 210 to 235 °C (dec.) | no cytotoxicity | moderate cytotoxic activity
COc1ncnc2c1c1c3cccnc3ccc1n2[C@@H]1O[C@H](CO)[C@@H](O)[C@H]1O [14f, 11-Methoxy-7-(β-D-ribofuranosyl)pyrimido[5′,4′:4,5]pyrrolo[3,2-f]quinoline] | > 10 | > 10 | > 10 | > 50 | 17.3 |  | 8 | 23.1 | > 50 | 40.2 | 5.2 | 9.8 | 27.4 | 190 to 205 °C (dec.) | no cytotoxicity | moderate cytotoxic activity
CSc1ncnc2c1c1c3cccnc3ccc1n2[C@@H]1O[C@H](CO)[C@@H](O)[C@H]1O [14g, 11-Methylthio-7-(β-D-ribofuranosyl)pyrimido[5′,4′:4,5]pyrrolo[3,2-f]quinoline] | > 10 | > 10 | > 10 | 36.8 | 15 |  | 5.1 | 16.2 | 36.8 | 18.6 | 9.3 | 9.3 | 17 | 228 to 242 °C (dec.) |  | moderate cytotoxic activity
